Measured values: patent publication US20230143470A1, “SMALL MOLECULE INHIBITORS OF INFLUENZA HEMAGGLUTININ” (THE SCRIPPS RESEARCH INSTITUTE, priority 2020, published 2023)

Target: H3/HK68 HA (Influenza A virus, UniProt Q91MA7)
Sequence (Q91MA7 27-521 limits assumed): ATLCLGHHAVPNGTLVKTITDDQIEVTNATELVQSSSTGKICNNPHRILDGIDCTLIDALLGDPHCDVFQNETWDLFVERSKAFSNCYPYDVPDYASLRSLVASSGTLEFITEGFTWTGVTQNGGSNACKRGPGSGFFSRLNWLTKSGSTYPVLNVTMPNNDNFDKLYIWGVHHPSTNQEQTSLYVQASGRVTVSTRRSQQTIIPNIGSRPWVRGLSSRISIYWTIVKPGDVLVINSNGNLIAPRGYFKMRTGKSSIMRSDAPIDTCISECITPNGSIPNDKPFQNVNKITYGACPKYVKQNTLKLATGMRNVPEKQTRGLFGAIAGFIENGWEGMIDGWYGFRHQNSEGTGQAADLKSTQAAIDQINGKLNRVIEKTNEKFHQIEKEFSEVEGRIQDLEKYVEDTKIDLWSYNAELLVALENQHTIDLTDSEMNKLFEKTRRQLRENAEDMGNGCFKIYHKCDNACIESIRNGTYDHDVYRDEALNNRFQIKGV

SMILES	melting temperature of H3/HK68 HA
O=C(c1ccc(Cl)cc1Cl)N1CCO[C@@H](c2ccccc2)C1 [F0045(S)]	does not change
O=C(c1ccc(Cl)cc1Cl)N1CCO[C@H](c2ccccc2)C1 [F0045(R)]	does not change
